Test results as given in PubChem BioAssay AID256 (DTP/NCI, 2004).
Several values for one entry are separate records, joined by “and”; a condition that tells them apart may be missing. Equal entries are not always repeated. Inconclusive results and toxic doses are left out.

Tested on: CD2F1 mice, L1210 leukemia ip, survival T/C
Assay: NCI In Vivo Anticancer Drug Screen. Data for tumor model L1210 Leukemia (intraperitoneal) in CD2F1 (CDF1) mice
Settings: higher = longer survival
In short: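 Ratio T/C, where T is the treated-group value and C the vehicle-dosed control value, from mice implanted with a transplantable tumor.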

[1] = endpoint: mean survival time, dose: 100.0 mg/kg/injection, schedule: Q01DX009 (ip), vehicle: saline with Tween-80
[2] = endpoint: mean survival time, dose: 100.0 mg/kg/injection, schedule: Q04DX003 (ip), vehicle: saline with Tween-80
[3] = endpoint: mean survival time, dose: 200.0 mg/kg/injection, schedule: Q01DX009 (ip), vehicle: saline with Tween-80
[4] = endpoint: mean survival time, dose: 200.0 mg/kg/injection, schedule: Q04DX003 (ip), vehicle: saline with Tween-80
[5] = endpoint: mean survival time, dose: 400.0 mg/kg/injection, schedule: Q01DX009 (ip), vehicle: saline with Tween-80
[6] = endpoint: mean survival time, dose: 400.0 mg/kg/injection, schedule: Q04DX003 (ip), vehicle: saline with Tween-80
[7] = endpoint: mean survival time, dose: 50.0 mg/kg/injection, schedule: Q01DX009 (ip), vehicle: saline with Tween-80
[8] = endpoint: mean survival time, dose: 100.0 mg/kg/injection, schedule: Q01DX001 (ip), vehicle: saline with Tween-80
[9] = endpoint: mean survival time, dose: 400.0 mg/kg/injection, schedule: Q01DX001 (ip), vehicle: saline with Tween-80
[10] = endpoint: mean survival time, dose: 100.0 mg/kg/injection, schedule: Q04DX003 (ip), vehicle: Klucel (hydroxypropylcellulose) (HPC)
[11] = endpoint: mean survival time, dose: 200.0 mg/kg/injection, schedule: Q04DX003 (ip), vehicle: Klucel (hydroxypropylcellulose) (HPC)
[12] = endpoint: mean survival time, dose: 100.0 mg/kg/injection, schedule: Q01DX009 (ip), vehicle: saline
[13] = endpoint: mean survival time, dose: 100.0 mg/kg/injection, schedule: Q04DX003 (ip), vehicle: saline
[14] = endpoint: mean survival time, dose: 200.0 mg/kg/injection, schedule: Q01DX009 (ip), vehicle: saline
[15] = endpoint: mean survival time, dose: 400.0 mg/kg/injection, schedule: Q04DX003 (ip), vehicle: saline
[16] = endpoint: mean survival time, dose: 200.0 mg/kg/injection, schedule: Q01DX001 (ip), vehicle: saline with Tween-80

## O=C1NC(=S)NC(=O)C1Cc1ccccc1O
endpoint: mean survival time, dose: 100.0 mg/kg/injection, schedule: Q01DX001 (ip), vehicle: saline
  T/C: 100 % of control
endpoint: mean survival time, dose: 200.0 mg/kg/injection, schedule: Q01DX001 (ip), vehicle: saline
  T/C: 100 % of control
endpoint: mean survival time, dose: 400.0 mg/kg/injection, schedule: Q01DX001 (ip), vehicle: saline
  T/C: 101 % of control

## COc1cc(Cc2nc(Cl)cc(Cl)n2)cc(OC)c1OC
[1]
  T/C: 105 % of control
[2]
  T/C: 95 % of control
[3]
  T/C: 97 % of control
[4]
  T/C: 93 % of control
[5]
  T/C: 103 % of control
[6]
  T/C: 97 % of control

## O=c1oc2c(ccc3ccccc32)c(O)c1-c1cccc2ccccc12
[7]
  T/C: 103 % of control
[1]
  T/C: 100 % of control
[3]
  T/C: 93 % of control

## OCCNCc1ccc(Cl)cc1
[7]
  T/C: 96 % of control
[1]
  T/C: 98 % of control
[2]
  T/C: 103 % of control
[3]
  T/C: 93 % of control
[4]
  T/C: 96 % of control

## CC1CCCCN1 (configuration not stated)
[8]
  T/C: 95 % of control
[9]
  T/C: 95 % of control

## CCOC(OCC)C(=O)OCC(=O)[C@]1(O)Cc2c(O)c3c(c(O)c2[C@@H](OC2CC(N)C(O)C(C)O2)C1)C(=O)c1c(OC)cccc1C3=O (some centres not stated)
endpoint: mean survival time, dose: 0.13 mg/kg/injection, schedule: Q01DX009 (ip), vehicle: saline
  T/C: 104 % of control
endpoint: mean survival time, dose: 0.25 mg/kg/injection, schedule: Q01DX009 (ip), vehicle: saline
  T/C: 118 % of control and 107 % of control
endpoint: mean survival time, dose: 0.5 mg/kg/injection, schedule: Q01DX009 (ip), vehicle: saline
  T/C: 110 % of control
endpoint: mean survival time, dose: 1.0 mg/kg/injection, schedule: Q01DX009 (ip), vehicle: saline
  T/C: 174 % of control
endpoint: mean survival time, dose: 2.0 mg/kg/injection, schedule: Q01DX009 (ip), vehicle: saline
  T/C: 160 % of control
endpoint: mean survival time, dose: 4.0 mg/kg/injection, schedule: Q01DX009 (ip), vehicle: saline
  T/C: 104 % of control

## CCOC(=O)C1=C(C)O/C(=C/c2cccc(Cl)c2)C1=O
endpoint: median survival time, dose: 50.0 mg/kg/injection, schedule: Q01DX009 (ip), vehicle: saline with Tween-80
  T/C: 107 % of control
endpoint: median survival time, dose: 100.0 mg/kg/injection, schedule: Q01DX009 (ip), vehicle: saline with Tween-80
  T/C: 110 % of control
endpoint: median survival time, dose: 200.0 mg/kg/injection, schedule: Q01DX009 (ip), vehicle: saline with Tween-80
  T/C: 112 % of control

## CC(C)OC(=O)C#CC(=O)O
endpoint: mean survival time, dose: 25.0 mg/kg/injection, schedule: Q01DX001 (ip), vehicle: saline
  T/C: 97 % of control
endpoint: mean survival time, dose: 50.0 mg/kg/injection, schedule: Q01DX001 (ip), vehicle: saline
  T/C: 97 % of control

## O=C/C=C/c1ccc([N+](=O)[O-])cc1
[10]
  T/C: 90 % of control
[11]
  T/C: 90 % of control

## CC(=O)NC(C=O)CC(C=O)CO (configuration not stated)
endpoint: mean survival time, dose: 50.0 mg/kg/injection, schedule: Q01DX009 (ip), vehicle: saline
  T/C: 103 % of control
endpoint: mean survival time, dose: 50.0 mg/kg/injection, schedule: Q04DX003 (ip), vehicle: saline
  T/C: 107 % of control
[12]
  T/C: 107 % of control
[13]
  T/C: 109 % of control
endpoint: mean survival time, dose: 150.0 mg/kg/injection, schedule: Q04DX003 (ip), vehicle: saline
  T/C: 108 % of control
[14]
  T/C: 95 % of control

## CN=NNc1ccc(C(=O)NC(C)C)cc1
endpoint: mean survival time, dose: 25.0 mg/kg/injection, schedule: Q01DX009 (ip), vehicle: DMSO
  T/C: 112 % of control
endpoint: mean survival time, dose: 25.0 mg/kg/injection, schedule: Q01DX009 (ip), vehicle: other
  T/C: 110 % of control
endpoint: mean survival time, dose: 50.0 mg/kg/injection, schedule: Q01DX009 (ip), vehicle: DMSO
  T/C: 114 % of control
endpoint: mean survival time, dose: 50.0 mg/kg/injection, schedule: Q01DX009 (ip), vehicle: other
  T/C: 102 % of control and 109 % of control
endpoint: mean survival time, dose: 100.0 mg/kg/injection, schedule: Q01DX009 (ip), vehicle: other
  T/C: 107 % of control
endpoint: mean survival time, dose: 200.0 mg/kg/injection, schedule: Q01DX009 (ip), vehicle: DMSO
  T/C: 86 % of control

## O=C(O)CCC1NCCCO1 (configuration not stated)
[12]
  T/C: 101 % of control
[13]
  T/C: 88 % of control
[14]
  T/C: 95 % of control
endpoint: mean survival time, dose: 400.0 mg/kg/injection, schedule: Q01DX009 (ip), vehicle: saline
  T/C: 95 % of control
[15]
  T/C: 95 % of control

## Nc1ccccc1Nc1ccccc1
endpoint: mean survival time, dose: 100.0 mg/kg/injection, schedule: Q01DX001 (ip), vehicle: saline + alcohol
  T/C: 101 % of control
endpoint: mean survival time, dose: 200.0 mg/kg/injection, schedule: Q01DX001 (ip), vehicle: saline + alcohol
  T/C: 97 % of control

## S=C1N(C2CCCCC2)CCN1C1CCCCC1
endpoint: mean survival time, dose: 25.0 mg/kg/injection, schedule: Q01DX001 (ip), vehicle: Klucel (hydroxypropylcellulose) (HPC)
  T/C: 108 % of control
endpoint: mean survival time, dose: 50.0 mg/kg/injection, schedule: Q01DX001 (ip), vehicle: Klucel (hydroxypropylcellulose) (HPC)
  T/C: 108 % of control
endpoint: mean survival time, dose: 100.0 mg/kg/injection, schedule: Q01DX001 (ip), vehicle: Klucel (hydroxypropylcellulose) (HPC)
  T/C: 103 % of control

## O=C1c2ccccc2C(=O)c2ccccc21
[1]
  T/C: 93 % of control
[2]
  T/C: 87 % of control
[3]
  T/C: 100 % of control
[4]
  T/C: 93 % of control
[5]
  T/C: 94 % of control
[6]
  T/C: 88 % of control

## CC1(C)CC(O)(C(Cl)c2ccccc2)C(=O)c2ccccc21 (configuration not stated)
endpoint: mean survival time, dose: 25.0 mg/kg/injection, schedule: Q01DX009 (ip), vehicle: water
  T/C: 103 % of control
endpoint: mean survival time, dose: 50.0 mg/kg/injection, schedule: Q01DX009 (ip), vehicle: water
  T/C: 104 % of control
endpoint: mean survival time, dose: 100.0 mg/kg/injection, schedule: Q01DX009 (ip), vehicle: water
  T/C: 98 % of control
endpoint: mean survival time, dose: 100.0 mg/kg/injection, schedule: Q04DX003 (ip), vehicle: acetone
  T/C: 98 % of control
endpoint: mean survival time, dose: 200.0 mg/kg/injection, schedule: Q01DX009 (ip), vehicle: water
  T/C: 109 % of control
endpoint: mean survival time, dose: 200.0 mg/kg/injection, schedule: Q04DX003 (ip), vehicle: acetone
  T/C: 95 % of control
endpoint: mean survival time, dose: 400.0 mg/kg/injection, schedule: Q01DX009 (ip), vehicle: water
  T/C: 107 % of control
endpoint: mean survival time, dose: 400.0 mg/kg/injection, schedule: Q04DX003 (ip), vehicle: acetone
  T/C: 95 % of control

## O=CN/N=C/c1ccc2c(c1)CCC2
[2]
  T/C: 107 % of control
[4]
  T/C: 96 % of control
[6]
  T/C: 96 % of control

## COCCCNC(=O)CS(=O)(=O)c1ccc(C)cc1
[13]
  T/C: 102 % of control
endpoint: mean survival time, dose: 200.0 mg/kg/injection, schedule: Q04DX003 (ip), vehicle: saline
  T/C: 98 % of control
[15]
  T/C: 102 % of control

## CC12CCC(=O)C=C1CCC1C2C(=O)CC2(C)C1CCC2(O)C(=O)Cn1cc(F)c(=O)[nH]c1=O (configuration not stated)
endpoint: mean survival time, dose: 12.5 mg/kg/injection, schedule: Q04DX003 (ip), vehicle: Klucel (hydroxypropylcellulose) (HPC)
  T/C: 100 % of control
endpoint: mean survival time, dose: 25.0 mg/kg/injection, schedule: Q04DX003 (ip), vehicle: Klucel (hydroxypropylcellulose) (HPC)
  T/C: 103 % of control
endpoint: mean survival time, dose: 50.0 mg/kg/injection, schedule: Q04DX003 (ip), vehicle: Klucel (hydroxypropylcellulose) (HPC)
  T/C: 100 % of control
[10]
  T/C: 96 % of control
[11]
  T/C: 94 % of control

## N#C/C(=C\C1CCC(Cl)C(Cl)C1)C1CCC([N+](=O)[O-])CC1 (configuration not stated)
endpoint: mean survival time, dose: 25.0 mg/kg/injection, schedule: Q04DX002 (ip), vehicle: saline with Tween-80
  T/C: 94 % of control
endpoint: mean survival time, dose: 50.0 mg/kg/injection, schedule: Q04DX002 (ip), vehicle: saline with Tween-80
  T/C: 88 % of control

## Cn1nnc(-c2nn[nH]n2)n1
[8]
  T/C: 105 % of control
[2]
  T/C: 106 % of control
[16]
  T/C: 104 % of control
[4]
  T/C: 98 % of control
[9]
  T/C: 94 % of control
[6]
  T/C: 97 % of control

## Cc1ccc(S(=O)(=O)OC(C#N)c2ccccc2)cc1 (configuration not stated)
[7]
  T/C: 100 % of control
endpoint: mean survival time, dose: 50.0 mg/kg/injection, schedule: Q04DX003 (ip), vehicle: saline with Tween-80
  T/C: 102 % of control
[8]
  T/C: 98 % of control
[1]
  T/C: 101 % of control
[2]
  T/C: 101 % of control
[16]
  T/C: 105 % of control
[4]
  T/C: 107 % of control

## O=[N+]([O-])c1ccc(-c2ccccc2)cc1
[2]
  T/C: 100 % of control
[4]
  T/C: 96 % of control
[6]
  T/C: 97 % of control
